Patent US11191754B2, “Inhibitors of nucleotidyl transferases and uses in herpes and hepatitis viral infections therefor” (Saint Louis University, priority 2015, dated 2021)

Assay: in vitro
Type: cell-based
Settings: African green monkey
Experimental: Qualitative assessments of cytotoxicity were done visually by inspecting the cells in the primary screening assays. For the quantitative assays, cells were plated in 96-well plates at 1.0×10^4 per well. The next day the compounds were added at 0.78 to 100 μM in a final concentration of 1% (v/v) DMSO, and the cells were incubated for 24 hours under conditions identical to those employed for the viral replication inhibition assays. Mitochondrial toxicity was measured by incubating the cells with 0.25 mg/mL thiazolyl blue tetrazolium bromide (MTT, SigmaAldrich Chemical Co.), the cultures were incubated for 60 min, metabolites were solubilized in acidic isopropanol, and absorbance was read at 570 nm. CC50 values were calculated by non-linear curve fitting using GraphPad Prism.
A quantitative toxicity measurement was conducted. Toxicity was assessed by measuring release of intracellular proteases into the culture medium due to cellular lysis. Cells were plated in 96-well plates at 1.0×10^4 per well. The next day compound was added in concentrations ranging from 0.78 to 100 μM in a final concentration of 1% (v/v) DMSO. The cells were incubated for 24 hours under conditions identical to those employed for the viral replication inhibition assays, and then […] according to the manufacturer's instructions. […]

SMILES: Cc1cc(CC(C)CC(C)(C)C)n(O)c(=O)c1 (stereo not shown) [#191, Piroctone olamine]
- CC50 at 24 h: > 100 µM
